Data on nine compounds can be found in BindingDB's records for doi:10.1016/j.bmc.2010.10.023 (Chugai Pharmaceutical, 2010).

This experiment in a line: Antagonist activity at AR in human bicalutamide-resistant LNCAP cells assessed as inhibition of cell proliferation after 6 days.

The term IC50 denotes the concentration at which inhibition is half-maximal.

On to `CC1(C)C(=O)N(c2ccc(C#N)c(C(F)(F)F)c2)C(=S)N1c1cccc(S(N)(=O)=O)n1` [6-[3-(4-Cyano-3-trifluoromethylphenyl)-5,5-dimethyl-4-oxo-2-thioxoimidazolidin-1-yl]pyridine-2-sulfonic acid amide], for which the IC50 came out at 100 nM.

As to `CC1(C)C(=O)N(c2ccc(C#N)c(C(F)(F)F)c2)C(=S)N1c1cccc(S(N)(=O)=O)c1` [3-[3-(4-Cyano-3-trifluoromethylphenyl)-5,5-dimethyl-4-oxo-2-thioxoimidazolidin-1-yl]benzenesulfonamide], the IC50 was found to be 100 nM.

With `CC1(C)C(=O)N(c2ccc(C#N)c(Cl)c2)C(=S)N1c1cccc(S(N)(=O)=O)c1` [3-[3-(3-Chloro-4-cyanophenyl)-5,5-dimethyl-4-oxo-2-thioxoimidazolidin-1-yl]benzenesulfonamide], the IC50 was 100 nM.

For `CC1(C)C(=O)N(c2ccc(C#N)c(C(F)(F)F)c2)C(=S)N1c1cncc(S(N)(=O)=O)c1` [5-[3-(4-Cyano-3-trifluoromethylphenyl)-5,5-dimethyl-4-oxo-2-thioxoimidazolidin-1-yl]pyridine-3-sulfonic acid amide], the IC50 came out at 30 nM.

As for `CC1(C)C(=O)N(c2ccc(C#N)c(Cl)c2)C(=S)N1CCCS(N)(=O)=O` [3-[3-(3-Chloro-4-cyanophenyl)-5,5-dimethyl-4-oxo-2-thioxoimidazolidin-1-yl]propane-1-sulfonamide], the IC50 stood at 10 nM.

For the compound `CC1(C)C(=O)N(c2ccc(C#N)c(Cl)c2)C(=S)N1c1cccc(S(N)(=O)=O)n1` [6-[3-(3-Chloro-4-cyanophenyl)-5,5-dimethyl-4-oxo-2-thioxoimidazolidin-1-yl]pyridine-2-sulfonic acid amide], the IC50 is 100 nM.

For the compound `CC1(C)C(=O)N(c2ccc(C#N)c(C(F)(F)F)c2)C(=S)N1c1ccnc(S(N)(=O)=O)c1` [4-[3-(4-Cyano-3-trifluoromethylphenyl)-5,5-dimethyl-4-oxo-2-thioxoimidazolidin-1-yl]pyridine-2-sulfonic acid amide], the concentration for half-maximal inhibition (IC50) was 80 nM.

Turning to `CC1(C)C(=O)N(c2ccc(C#N)c(Cl)c2)C(=S)N1c1cncc(S(N)(=O)=O)c1` [5-[3-(3-Chloro-4-cyanophenyl)-5,5-dimethyl-4-oxo-2-thioxoimidazolidin-1-yl]pyridine-3-sulfonic acid amide], the IC50 worked out at 50 nM.

With `CC1(C)C(=O)N(c2ccc(C#N)c(C(F)(F)F)c2)C(=S)N1c1ccccc1` [4-(3-Phenyl-4,4-dimethyl-5-oxo-2-thioxoimidazolidin-1-yl)-2-trifluoromethylbenzonitrile], the IC50 is 100 nM.
